These results are taken from US20060073589A1, “Rapid generation of activated mononuclear antigen presenting cells from monocytes” (priority 2002, published 2006).

*1 amine or outer side, *2 acyl side, *3 side chain or, on linkers, in order; H or OH if unused. Where a SMILES comes first, the peptide text is derived from it. Bridges are numbered along the chain shown (N, C = ends). Roman numbers before positions name the chains, in order. [ ]: non-standard residue; d: D form. Actinocin(9to1) = Cc1c2oc3c(C)ccc(C(=O)[*:1])c3nc-2c(C(=O)[*:2])c(N)c1=O; NMeV = CN[C@H](C(=O)O)C(C)C; Sar = CNCC(=O)O

The experiment has as its system CD83 expression on the cell membrane of monocytes. In words: CD83 surface expression on monocytes cultured with metabolic inhibitors. It is filed as cell-based, human. Conditions: 4 h monocyte culture, inhibitor added at beginning; actinomycin D 100 ng/ml, cyclohexamide 100 μM, brefeldin A 5 μg/ml. Here is the method:
The dotted line indicates the FACS profile of cells stained with isotype control mAb. The data are representative of three independent experiments.
Cells were washed and resuspended in PBS containing 1% human serum and incubated with fluorochrome-conjugated mAbs for 30 min at 4° C. The following mAbs were used for immunofluorescent staining: anti-CD14, CD80, CD4, CD25, CD54, HLA-DR (Becton Dickinson, San Jose Calif.), CD40, CD86, CD83, CD1a, CD62L, HLA A-B-C, ManR, CD58, LFA-1, CD32 (Pharmingen, San Diego, Calif.), CD2 (clone SFCI3Pt2H9; Beckman Coulter, Fullerton, Calif.), CD33 (Immunotech). Samples were collected and analysed by using a FACSort (Becton Dickinson) and data analysis was performed by CellQuest software (Becton Dickinson). Cells were electronically gated according to light scatter properties, in order to exclude cell debris and contaminating lymphocytes.
The CD83 surface expression in cells cultured in the presence of various metabolic inhibitors added at the beginning of the culture was examined.

For `C[C@@H]1C[C@@H]([C@H](O)CC2CC(=O)NC(=O)C2)C(=O)[C@@H](C)C1` [cyclohexamide], the “inhibition of up-regulation of CD83 expression on the cell membrane” value (from here on “inhibition”) was “completely blocked”.

On to `C[C@H]1CCC/C=C/[C@@H]2C[C@H](O)C[C@H]2[C@H](O)/C=C/C(=O)O1` [brefeldin A], for which the “inhibition” value was “completely blocked”.

Turning to `Cc1c2oc3c(C)ccc(C(=O)N[C@@H]4C(=O)N[C@H](C(C)C)C(=O)N5CCC[C@H]5C(=O)N(C)CC(=O)N(C)[C@@H](C(C)C)C(=O)O[C@@H]4C)c3nc-2c(C(=O)N[C@@H]2C(=O)N[C@H](C(C)C)C(=O)N3CCC[C@H]3C(=O)N(C)CC(=O)N(C)[C@@H](C(C)C)C(=O)O[C@@H]2C)c(N)c1=O` [actinomycin D] (I: T[dV]P[Sar][NMeV] / II: T[dV]P[Sar][NMeV]; ester I:1-I:C, II:1-II:C; linker I:N-II:N via Actinocin(9to1)), the “inhibition” value is given as “not significantly inhibited”.
